The target of this assay is human Kv1.3 (Homo sapiens (Human), UniProt P22001). Nature of the assay: Kv1.3 potency evaluation, automated patch clamp electrophysiology (QPatch HT) in CHO-Kv1.3 cells. It is filed as cell-based. The settings on record: whole-cell QPatch HT, % inhibition of charge, step to +30 mV, four concentrations, N≥3 cells, read-out: hKv1.3 IC50. From the text:
Biological Assays Kv1.3 Potency Evaluation Electrophysiology Recordings
A proprietary Chinese hamster ovary cell line stably expressing exogenous human a-subunits of Kv1.3 (CHO-Kv1.3) channel, validated biophysically and pharmacologically in house, was used to assess the ability of test compounds to block Kv1.3 currents using automated patch clamp electrophysiology. The QPatch HT system (Sophion Bioscience A/S, Denmark) was used with the conventional whole-cell configuration. This system is an automated, chip-based planar patch clamp device allowing for up to 48 parallel independent experiments in one experimental assay run. Cells are added to each well and drawn by suction onto a small aperture to obtain a Gigaohm seal between the cell membrane and treated silicon surface, and whole-cell recordings initiated after access is achieved by suction and/or voltage pulses. The QPatch HT uses static perfusion, whereby a small volume of recording solution or drug is added to a reservoir on the chip and the solution perfuses across the cell through quartz-lined microfluidic channels; this solution is removed by capillary action when the next sample application is made.
CHO-Kv1.3 cells were prepared for experiments by dissociation from T175 cell culture flasks using trypsin-EDTA (0.05%), cells were kept in serum free media in the cell hotel on board the QPatch HT. These cells were sampled, washed and re-suspended in extracellular recording solution by the QPatch HT immediately before application to the recording well site on the chip. Experiments were performed using the following solutions; extracellular solution contained (in mM); 150 NaCl, 10 KCl, 1 MgCl2, 3 CaCl2), 10 Glucose and 10 HEPES (pH 7.4, NaOH) and intracellular solution contained (in mM); 20 KCl, 120 KF, 10 HEPES, 10 EGTA, 5 ATP (pH 7.2, KOH).
The potency (Inhibitory Concentration 50%, IC50) of synthesized compounds against Kv1.3 was determined from concentration-response relationships established by cumulatively applying four escalating concentrations of test compound to an individual cell and a minimum of N≥3 individual cells of data per compound were used to generate the IC50 value.
On achieving the whole-cell configuration; two additions of vehicle (0.1-0.3% DMSO v/v) were applied to each cell in two bolus additions with a two minute recording period between each addition (four minutes total recording time). Following the vehicle period, four concentrations of test sample were applied as two bolus additions per test concentration at two minute intervals, and the effects on current measured during the four minute recording period.
Currents were elicited using a single step voltage protocol. From a holding potential of −80 mV the cell is depolarised to +30 mV (500 ms) resulting in an outward current before finally repolarising the cell by returning to the holding potential. The command voltage was applied at a frequency of 0.067 Hz throughout the duration of the experiment. For each sweep of the voltage protocol membrane current and the passive properties of the individual cells were recorded by QPatch assay software (version 5.2). Cursors were placed to calculate the charge (integral of the current recorded during cursor interval) between 2-490 ms (0.4-99%) of the 500 ms step to +30 mV.
The % inhibition of charge for each test concentration application period was calculated as the reduction in mean charge at the end of each concentration test period relative to the charge value measured at the end of the control (i.e. vehicle) period. Sigmoidal concentration response curves (four parameter logistic curve) were fitted to the % inhibition rom which the IC50 was determined. Curve fits were constrained at 0 and 100%.

The record followed here is patent US12128028B2, “Heterocyclic sulfonamide derivatives and pharmaceutical uses thereof” (METRION BIOSCIENCES LIMITED, priority 2018, dated 2024).

SMILES strings stand for the structures.

Chain of human Kv1.3 (P22001 whole entry): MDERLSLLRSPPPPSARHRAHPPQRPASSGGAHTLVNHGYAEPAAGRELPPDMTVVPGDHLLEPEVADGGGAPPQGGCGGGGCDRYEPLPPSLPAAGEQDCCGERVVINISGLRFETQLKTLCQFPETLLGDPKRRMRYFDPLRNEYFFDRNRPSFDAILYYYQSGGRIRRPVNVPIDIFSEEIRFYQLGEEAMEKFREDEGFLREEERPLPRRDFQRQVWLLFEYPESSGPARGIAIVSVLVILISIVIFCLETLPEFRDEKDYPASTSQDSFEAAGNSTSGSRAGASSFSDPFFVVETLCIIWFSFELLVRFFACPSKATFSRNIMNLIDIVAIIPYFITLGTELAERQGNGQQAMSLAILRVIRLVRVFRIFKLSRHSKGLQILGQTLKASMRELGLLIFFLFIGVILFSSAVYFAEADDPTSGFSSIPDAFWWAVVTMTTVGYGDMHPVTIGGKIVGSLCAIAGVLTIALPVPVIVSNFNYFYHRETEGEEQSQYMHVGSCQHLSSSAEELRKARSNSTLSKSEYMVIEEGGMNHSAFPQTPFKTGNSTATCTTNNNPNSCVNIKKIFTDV

Turning to `CC1(C)N=C(C23CC(N(Cc4ccc(Cl)c(F)c4)S(=O)(=O)c4ccccc4)(C2)C3)N[C@H]1C(=O)N1C2CCC1CC(F)(F)C2` (mixture of isomers) [Example 77], the IC50 was 60 nM.
For the compound `CCCC1(C(=O)NCC2CCC2)CN=C(C23CC(N(Cc4ccc(C(F)(F)F)cc4)S(=O)(=O)c4ccc(F)cc4)(C2)C3)N1` (stereo not shown) [Example 273], the IC50 is 552 nM.
In the case of `CN(C[C@H]1CC1(F)F)C(=O)[C@@H]1NC(C23CC(N(Cc4ccc(Cl)c(F)c4)S(=O)(=O)c4ccccc4)(C2)C3)=NC1(C)C` (mixture of isomers) [Example 83], the IC50 came to 61 nM.
On to `CC(F)(F)CCS(=O)(=O)N(Cc1ccc(Cl)c(F)c1)C12CC(C3=NC(C)(C)[C@H](C(=O)NCC(F)(F)C(F)(F)F)N3)(C1)C2` (mixture of isomers) [Example 222], for which the IC50 worked out at 170 nM.
For `CC1(C)N=C(C23CC(N(Cc4ccc(Cl)c(F)c4)S(=O)(=O)c4ccccc4)(C2)C3)N[C@H]1C(=O)NC1CC(F)(F)C1` (mixture of isomers) [Example 114] the value was 73 nM; for `CC1(C)N=C(C23CC(N(Cc4ccc(Cl)cc4)S(=O)(=O)c4ccccc4)(C2)C3)N[C@H]1C(=O)NC1CC(C(F)F)C1` (mixture of isomers) [Example 101], 67 nM.
On to `CC1(C)N=C(C23CC(N(Cc4ccc(Cl)c(F)c4)S(=O)(=O)c4ccccc4)(C2)C3)N[C@H]1C(=O)NCC1(C(F)(F)F)CC1` (mixture of isomers) [Example 26], for which the IC50 was 54 nM.
Next, `CC1(C)N=C(C23CC(N(Cc4ccc(Cl)c(F)c4)S(=O)(=O)c4ccccc4)(C2)C3)N[C@H]1C(=O)NCC(F)(F)F` (mixture of isomers) [Example 140]: 84 nM; `CC(F)(F)CCS(=O)(=O)N(Cc1ccc(Cl)c(Cl)c1)C12CC(C3=NC(C)(C)[C@H](C(=O)NCC(F)(F)C(F)(F)F)N3)(C1)C2` (mixture of isomers) [Example 156]: 92 nM.
`CC1(C)N=C(C23CC(N(Cc4ccc(Cl)c(F)c4)S(=O)(=O)c4ccccc4)(C2)C3)N[C@@H]1C(=O)N1CCC(F)(F)CC1` (mixture of isomers) [Example 248]: the half-maximal inhibitory concentration (IC50) is 275 nM.
Next, `CC(C)(C)CS(=O)(=O)N(Cc1ccc(Cl)cc1)C12CC(C3=NC(C)(C)[C@H](C(=O)NCCC(F)(F)F)N3)(C1)C2` (mixture of isomers) [Example 139]: 84 nM; `CCCCS(=O)(=O)N(Cc1ccc(Cl)cc1)C12CC(C3=NC(C)(C)[C@H](C(=O)NCCC(F)(F)F)N3)(C1)C2` (mixture of isomers) [Example 10]: 28 nM.
Next, `CC1(C)N=C(C23CC(N(Cc4ccc(Cl)c(Cl)c4)S(=O)(=O)c4ccccc4)(C2)C3)N[C@H]1C(=O)N1CC2(C1)CC(F)(F)C2` (mixture of isomers) [Example 195]: 124 nM; `CN(CC(F)(F)C(F)(F)F)C(=O)[C@@H]1NC(C23CC(N(Cc4ccc(Cl)c(F)c4)S(=O)(=O)c4ccccc4)(C2)C3)=NC1(C)C` (mixture of isomers) [Example 181]: 106 nM.
`CC1(NC(=O)[C@@]2(C)CN=C(C34CC(N(Cc5ccc(C(F)(F)F)cc5)S(=O)(=O)c5ccc(F)cc5)(C3)C4)N2)CCC1` (mixture of isomers) [Example 228]: the IC50 was 190 nM.
For `O=C(NCC1CCC1)[C@H]1CN=C(C23CC(N(Cc4ccc(C(F)(F)F)cc4)S(=O)(=O)c4ccc(F)cc4)(C2)C3)N1` (mixture of isomers) [Example 209], the IC50 is 144 nM.
Regarding `CC(C)(C)CNC(=O)[C@@H]1NC(C23CC(N(Cc4ccc(Cl)c(Cl)c4)S(=O)(=O)CCC(F)F)(C2)C3)=NC1(C)C` (mixture of isomers) [Example 106], the IC50 stood at 70 nM.
For `CC1(C)N=C(C23CC(N(Cc4ccc(Cl)cc4)S(=O)(=O)CCCF)(C2)C3)N[C@H]1C(=O)NCCC(F)(F)F` (mixture of isomers) [Example 92], the IC50 amounted to 64 nM.
Next, `CC(C)NC(=O)[C@@]1(C)CN=C(C23CC(N(Cc4ccccc4)S(=O)(=O)c4ccccc4)(C2)C3)N1` (mixture of isomers) [Example 258]: 362 nM; `CCCS(=O)(=O)N(Cc1ccc(Cl)c(Cl)c1)C12CC(C3=NC(C)(C)[C@H](C(=O)NCCC(F)(F)F)N3)(C1)C2` (mixture of isomers) [Example 136]: 82 nM.
Turning to `CC1(C)N=C(C23CC(N(Cc4ccc(Cl)cc4)S(=O)(=O)c4ccccc4C#N)(C2)C3)N[C@H]1C(=O)NCCC(F)(F)F` (mixture of isomers) [Example 99], the IC50 turned out to be 67 nM.
As to `CC1(C)N=C(C23CC(N(Cc4ccc(Cl)c(F)c4)S(=O)(=O)c4ccccc4)(C2)C3)N[C@H]1C(=O)NCC1(F)CC1` (mixture of isomers) [Example 6], the IC50 is 20 nM.
Next, `CC1(C)N=C(C23CC(N(Cc4ccc(C(F)(F)F)cc4)S(=O)(=O)c4ccc(F)cc4)(C2)C3)NC1C(=O)N1CCCCC1` (stereo not shown) [Example 157]: 94 nM; `CN(C(=O)[C@@H]1NC(C23CC(N(Cc4ccc(Cl)c(Cl)c4)S(=O)(=O)c4ccccc4)(C2)C3)=NC1(C)C)C1CC(C(F)F)C1` (mixture of isomers) [Example 153]: 91 nM; `CC1(C)N=C(C23CC(N(Cc4ccc(Cl)cc4)S(=O)(=O)CCC4CC4)(C2)C3)N[C@H]1C(=O)NCCC(F)(F)F` (mixture of isomers) [Example 67]: 53 nM.
Consider `O=C(NCC1CCC1)C1(Cc2ccccc2)CN=C(C23CC(N(Cc4ccc(C(F)(F)F)cc4)S(=O)(=O)c4ccc(F)cc4)(C2)C3)N1` (stereo not shown) [Example 279], for which the IC50 turned out to be 608 nM.
Next, `CC(C)S(=O)(=O)N(Cc1ccc(Cl)cc1)C12CC(C3=NC(C)(C)[C@H](C(=O)NCCC(F)(F)F)N3)(C1)C2` (mixture of isomers) [Example 252]: 317 nM; `CC1(C)N=C(C23CC(N(Cc4ccc(C(F)(F)F)cc4)S(=O)(=O)c4ccccc4)(C2)C3)NC1C(=O)NCCC(F)(F)F` (stereo not shown) [Example 220]: 169 nM.
For `CC(C)(F)CNC(=O)[C@@H]1NC(C23CC(N(Cc4ccc(Cl)c(Cl)c4)S(=O)(=O)CCC(C)(F)F)(C2)C3)=NC1(C)C` (mixture of isomers) [Example 159] the value was 95 nM; for `CN(CC1CCC1)C(=O)[C@@]1(C)CN=C(C23CC(N(Cc4ccc(C(F)(F)F)cc4)S(=O)(=O)c4ccc(F)cc4)(C2)C3)N1` (mixture of isomers) [Example 256], 342 nM; for `CC(C)C1(C(=O)NCC2CCC2)CN=C(C23CC(N(Cc4ccc(C(F)(F)F)cc4)S(=O)(=O)c4ccc(F)cc4)(C2)C3)N1` (stereo not shown) [Example 266], 415 nM.
For `CC1(C)N=C(C23CC(N(Cc4ccc(Cl)c(F)c4)S(=O)(=O)c4ccccc4)(C2)C3)N[C@@H]1C(=O)NCCC(F)(F)F` (mixture of isomers) [Example 146] the value was 88 nM; for `CC1(C)N=C(C23CC(N(Cc4ccc(Cl)cc4)S(=O)(=O)c4ccccc4)(C2)C3)N[C@H]1C(=O)NCC(F)(F)C(F)(F)F` (mixture of isomers) [Example 112], 72 nM.
Take `COCCS(=O)(=O)N(Cc1ccc(Cl)cc1)C12CC(C3=NC(C)(C)[C@H](C(=O)NCCC(F)(F)F)N3)(C1)C2` (mixture of isomers) [Example 261]: the concentration for half-maximal inhibition (IC50) is 386 nM.
`CC(C)NC(=O)C1NC(C23CC(N(Cc4ccc(C(F)(F)F)cc4)S(=O)(=O)c4ccc(F)cc4)(C2)C3)=NC1(C)C` (stereo not shown) [Example 208]: the IC50 turned out to be 143 nM.
For `CC1(C)N=C(C23CC(N(Cc4ccc(Cl)cc4)S(=O)(=O)c4cccc(C(F)(F)F)c4)(C2)C3)N[C@H]1C(=O)NCCC(F)(F)F` (mixture of isomers) [Example 152] the value was 91 nM.
As for `CC1(C)N=C(C23CC(N(Cc4ccc(Cl)c(F)c4)S(=O)(=O)c4ccccc4)(C2)C3)N[C@H]1C(=O)N1CC(C(F)(F)F)C1` (mixture of isomers) [Example 172], the IC50 stood at 103 nM.
